Experiment in all cases: KinomeScan kinase profiling
Holding throughout (format): binding

One assay has as its target T1, SgK085 (Homo sapiens, UniProt Q86YV6).
T1 construct: host or cells: E. coli host derived from the BL21 strain, T7 phage lysate
The procedure, abridged:
(§1)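 Kinases were expressed as T7 phage fusions in a BL21-derived E. coli host and the cleared lysates were used. Ligand beads were blocked with biotin and buffer (1% BSA, 0.05% Tween 20, 1 mM DTT). Compounds came from 40× DMSO stocks, and phage in the eluates was titred by qPCR.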

A further assay has as its target T2, MELK (Homo sapiens, UniProt Q14680).
T2 construct: host or cells: E. coli derived from BL21, infected with T7 phage
The procedure, abridged: as §1

A further assay has as its target T3, EGFR (G719C) (Homo sapiens, UniProt P00533, G719C).
T3 construct: purchased Ambit Biosciences Corp (KinomeScan); host or cells: T7 phage in E. coli host derived from BL21
The procedure, abridged: as §1

Another assay deals with T4, ABL1 (M351T) (Homo sapiens, UniProt P00519, M351T).
T4 construct: host or cells: E. coli host derived from BL21 (T7 phage lysate)
The method, boiled down: as §1

A further assay has as its target T5, RET (V804M) (Homo sapiens, UniProt P07949, V804M).
T5 construct: host or cells: E. coli host derived from BL21, T7 phage lysate
The method, boiled down:
as §1

A further assay addresses T6, IGF1R (Homo sapiens, UniProt P08069).
T6 construct: host or cells: T7 phage in E. coli host derived from BL21
The method, boiled down: as §1

The next assay has as its target T7, ACVR2B (Homo sapiens, UniProt Q13705).
T7 construct: host or cells: E. coli host derived from BL21 (T7 phage lysate)
The procedure, abridged:
as §1

For another assay, the target named is T8, AMPK-alpha1 (Homo sapiens, UniProt Q13131).
T8 construct: host or cells: E. coli host derived from BL21 (T7 phage lysate)
The procedure, abridged:
as §1

The target of a further assay is T9, EGFR (Homo sapiens, UniProt P00533).
T9 construct: purchased Ambit Biosciences Corp (KinomeScan); host or cells: T7 phage in E. coli host derived from BL21
The method, boiled down: as §1

The target in another assay is T10, AURKA (Homo sapiens, UniProt O14965).
T10 construct: purchased Ambit Biosciences Corp (KinomeScan); host or cells: E. coli host derived from the BL21 strain, T7 phage
T10 sequence (O14965 whole entry): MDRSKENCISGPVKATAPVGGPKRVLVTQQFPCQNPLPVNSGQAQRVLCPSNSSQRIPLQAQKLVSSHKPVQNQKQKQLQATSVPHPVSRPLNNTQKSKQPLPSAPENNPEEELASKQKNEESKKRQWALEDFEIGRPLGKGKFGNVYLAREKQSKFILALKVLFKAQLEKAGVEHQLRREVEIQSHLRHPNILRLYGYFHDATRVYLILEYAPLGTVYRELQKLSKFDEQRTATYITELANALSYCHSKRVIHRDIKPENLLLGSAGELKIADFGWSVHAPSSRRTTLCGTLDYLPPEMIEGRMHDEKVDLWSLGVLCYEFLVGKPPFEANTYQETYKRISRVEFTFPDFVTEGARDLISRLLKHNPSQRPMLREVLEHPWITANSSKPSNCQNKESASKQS
The procedure, abridged:
as §1

The next assay deals with T11, GSK3A (Homo sapiens, UniProt P49840).
T11 construct: host or cells: E. coli host derived from BL21, infected with T7 phage
The method, boiled down: as §1

The target of a further assay is T12, PLK4 (Homo sapiens, UniProt O00444).
T12 construct: purchased Ambit Biosciences Corp (KinomeScan); host or cells: E. coli host derived from BL21, infected with T7 phage
T12 sequence (O00444 whole entry): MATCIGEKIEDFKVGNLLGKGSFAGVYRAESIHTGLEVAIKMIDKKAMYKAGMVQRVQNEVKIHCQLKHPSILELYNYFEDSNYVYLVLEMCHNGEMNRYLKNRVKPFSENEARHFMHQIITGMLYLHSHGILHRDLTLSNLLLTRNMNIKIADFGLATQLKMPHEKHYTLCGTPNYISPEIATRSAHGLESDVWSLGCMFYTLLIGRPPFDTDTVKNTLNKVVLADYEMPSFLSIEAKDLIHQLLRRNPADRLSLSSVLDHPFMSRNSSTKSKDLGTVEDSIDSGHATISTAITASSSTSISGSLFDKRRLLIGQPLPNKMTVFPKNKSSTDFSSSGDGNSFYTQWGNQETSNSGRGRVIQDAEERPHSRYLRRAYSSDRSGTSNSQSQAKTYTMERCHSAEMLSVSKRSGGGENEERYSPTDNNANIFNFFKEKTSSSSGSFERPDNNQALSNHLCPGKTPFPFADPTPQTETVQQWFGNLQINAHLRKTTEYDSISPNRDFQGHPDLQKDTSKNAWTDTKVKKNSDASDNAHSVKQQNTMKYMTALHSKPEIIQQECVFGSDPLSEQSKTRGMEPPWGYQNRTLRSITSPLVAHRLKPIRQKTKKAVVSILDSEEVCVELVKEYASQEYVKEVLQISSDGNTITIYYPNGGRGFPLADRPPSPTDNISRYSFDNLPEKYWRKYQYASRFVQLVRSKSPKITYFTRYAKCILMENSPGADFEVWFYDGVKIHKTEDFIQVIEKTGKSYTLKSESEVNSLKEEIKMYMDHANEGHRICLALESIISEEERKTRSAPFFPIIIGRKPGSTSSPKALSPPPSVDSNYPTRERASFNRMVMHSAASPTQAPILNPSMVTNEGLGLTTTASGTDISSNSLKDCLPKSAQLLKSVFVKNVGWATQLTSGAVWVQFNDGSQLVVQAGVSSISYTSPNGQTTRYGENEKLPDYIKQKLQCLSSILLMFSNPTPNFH
The procedure, abridged:
as §1

The next assay deals with T13, DDR2 (Homo sapiens, UniProt Q16832).
T13 construct: purchased Ambit Biosciences Corp (KinomeScan); host or cells: T7 phage in E. coli host derived from BL21
The method, boiled down:
as §1

In another assay the target is T14, FYN (Homo sapiens, UniProt P06241).
T14 construct: host or cells: E. coli host derived from BL21, infected with T7 phage
The method, boiled down:
as §1

For a further assay, the target named is T15, CSNK1G1 (Homo sapiens, UniProt Q9HCP0).
T15 construct: purchased Ambit Biosciences Corp (KinomeScan); host or cells: T7 phage in E. coli host derived from BL21
The method, boiled down:
as §1

The target of another assay is T16, FGR (Homo sapiens, UniProt P09769).
T16 construct: host or cells: E. coli host derived from BL21, infected with T7 phage
The procedure, abridged:
as §1

The target in a further assay is T17, FLT3 (D835H) (Homo sapiens, UniProt P36888, D835H).
T17 construct: host or cells: E. coli host derived from BL21, infected with T7 phage
The method, boiled down: as §1

The next assay addresses T18, PRKR (Homo sapiens, UniProt P19525).
T18 construct: purchased Ambit Biosciences Corp (KinomeScan); host or cells: E. coli host derived from BL21, infected with T7 phage
The method, boiled down: as §1

The target of the next assay is T19, PFTAIRE2 (Homo sapiens, UniProt Q96Q40).
T19 construct: host or cells: E. coli host derived from the BL21 strain, infected with T7 phage
The procedure, abridged: as §1

Another assay deals with T20, CSNK1G2 (Homo sapiens, UniProt P78368).
T20 construct: purchased Ambit Biosciences Corp (KinomeScan); host or cells: T7 phage in E. coli host derived from BL21
T20 sequence (P78368 whole entry): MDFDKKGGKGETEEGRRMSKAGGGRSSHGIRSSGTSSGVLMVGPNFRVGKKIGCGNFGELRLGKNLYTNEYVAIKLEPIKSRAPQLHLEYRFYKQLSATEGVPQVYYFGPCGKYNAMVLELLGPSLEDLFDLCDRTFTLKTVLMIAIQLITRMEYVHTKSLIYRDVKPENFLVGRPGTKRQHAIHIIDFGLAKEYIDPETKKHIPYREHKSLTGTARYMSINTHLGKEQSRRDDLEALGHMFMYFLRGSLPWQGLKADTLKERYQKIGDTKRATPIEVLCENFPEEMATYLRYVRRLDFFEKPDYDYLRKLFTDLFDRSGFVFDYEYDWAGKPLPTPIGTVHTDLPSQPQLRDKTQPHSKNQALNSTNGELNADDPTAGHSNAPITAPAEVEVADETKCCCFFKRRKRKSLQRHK
The method, boiled down: as §1

Another assay has as its target T21, KIT (D816V) (Homo sapiens, UniProt P10721, D816V).
T21 construct: host or cells: T7 phage in E. coli host derived from BL21
The procedure, abridged: as §1

The target in the next assay is T22, NEK1 (Homo sapiens, UniProt Q96PY6).
T22 construct: host or cells: T7 phage in E. coli host derived from BL21
The procedure, abridged: as §1

Another assay addresses T23, MEK2 (Homo sapiens, UniProt P36507).
T23 construct: host or cells: E. coli derived from BL21, infected with T7 phage
The method, boiled down: as §1

SMILES strings stand for the structures.

T5 sequence (P07949 29-1114 V804M): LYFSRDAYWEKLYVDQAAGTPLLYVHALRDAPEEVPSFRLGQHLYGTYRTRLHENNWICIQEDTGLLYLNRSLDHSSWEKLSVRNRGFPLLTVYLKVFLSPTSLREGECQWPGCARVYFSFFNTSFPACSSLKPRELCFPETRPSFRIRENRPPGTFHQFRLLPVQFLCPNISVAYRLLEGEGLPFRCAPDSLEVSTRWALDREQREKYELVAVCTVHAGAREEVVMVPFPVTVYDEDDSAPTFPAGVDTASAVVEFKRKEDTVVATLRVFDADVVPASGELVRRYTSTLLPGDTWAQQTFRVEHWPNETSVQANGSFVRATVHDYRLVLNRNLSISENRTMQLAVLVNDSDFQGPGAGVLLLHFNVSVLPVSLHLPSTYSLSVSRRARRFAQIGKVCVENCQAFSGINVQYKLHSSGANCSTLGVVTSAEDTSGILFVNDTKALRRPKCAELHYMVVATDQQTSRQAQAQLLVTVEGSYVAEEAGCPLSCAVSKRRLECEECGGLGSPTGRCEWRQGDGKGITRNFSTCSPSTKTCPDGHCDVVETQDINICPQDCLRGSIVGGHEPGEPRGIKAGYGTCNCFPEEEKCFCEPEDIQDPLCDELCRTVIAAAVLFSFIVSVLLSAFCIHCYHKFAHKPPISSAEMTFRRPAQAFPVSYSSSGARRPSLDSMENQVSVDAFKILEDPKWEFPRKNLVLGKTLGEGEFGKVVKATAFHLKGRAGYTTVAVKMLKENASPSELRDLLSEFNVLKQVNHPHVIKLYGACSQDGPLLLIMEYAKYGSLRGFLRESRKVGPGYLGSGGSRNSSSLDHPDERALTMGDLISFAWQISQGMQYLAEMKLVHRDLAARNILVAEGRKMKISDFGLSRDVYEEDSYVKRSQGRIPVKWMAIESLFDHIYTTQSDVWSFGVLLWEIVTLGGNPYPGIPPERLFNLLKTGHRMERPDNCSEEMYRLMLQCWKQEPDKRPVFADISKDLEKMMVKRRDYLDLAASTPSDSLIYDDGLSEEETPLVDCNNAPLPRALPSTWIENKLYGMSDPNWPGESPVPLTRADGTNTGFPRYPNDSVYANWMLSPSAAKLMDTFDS
T18 sequence (P19525 whole entry): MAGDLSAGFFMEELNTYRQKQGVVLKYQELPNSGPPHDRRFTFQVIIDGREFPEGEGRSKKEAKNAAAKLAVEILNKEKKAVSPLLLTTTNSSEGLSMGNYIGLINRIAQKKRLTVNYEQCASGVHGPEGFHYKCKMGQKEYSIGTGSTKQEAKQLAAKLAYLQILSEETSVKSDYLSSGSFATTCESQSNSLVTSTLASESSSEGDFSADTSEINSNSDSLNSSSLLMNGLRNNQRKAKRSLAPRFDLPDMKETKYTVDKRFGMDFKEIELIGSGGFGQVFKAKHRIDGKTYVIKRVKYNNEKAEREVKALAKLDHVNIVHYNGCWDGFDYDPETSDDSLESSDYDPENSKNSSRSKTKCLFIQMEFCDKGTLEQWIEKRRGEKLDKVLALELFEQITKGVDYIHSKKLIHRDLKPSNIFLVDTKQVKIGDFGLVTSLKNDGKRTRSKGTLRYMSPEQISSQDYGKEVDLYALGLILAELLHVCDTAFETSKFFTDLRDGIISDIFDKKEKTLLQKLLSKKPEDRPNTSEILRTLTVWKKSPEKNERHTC
T6 sequence (P08069 31-1367): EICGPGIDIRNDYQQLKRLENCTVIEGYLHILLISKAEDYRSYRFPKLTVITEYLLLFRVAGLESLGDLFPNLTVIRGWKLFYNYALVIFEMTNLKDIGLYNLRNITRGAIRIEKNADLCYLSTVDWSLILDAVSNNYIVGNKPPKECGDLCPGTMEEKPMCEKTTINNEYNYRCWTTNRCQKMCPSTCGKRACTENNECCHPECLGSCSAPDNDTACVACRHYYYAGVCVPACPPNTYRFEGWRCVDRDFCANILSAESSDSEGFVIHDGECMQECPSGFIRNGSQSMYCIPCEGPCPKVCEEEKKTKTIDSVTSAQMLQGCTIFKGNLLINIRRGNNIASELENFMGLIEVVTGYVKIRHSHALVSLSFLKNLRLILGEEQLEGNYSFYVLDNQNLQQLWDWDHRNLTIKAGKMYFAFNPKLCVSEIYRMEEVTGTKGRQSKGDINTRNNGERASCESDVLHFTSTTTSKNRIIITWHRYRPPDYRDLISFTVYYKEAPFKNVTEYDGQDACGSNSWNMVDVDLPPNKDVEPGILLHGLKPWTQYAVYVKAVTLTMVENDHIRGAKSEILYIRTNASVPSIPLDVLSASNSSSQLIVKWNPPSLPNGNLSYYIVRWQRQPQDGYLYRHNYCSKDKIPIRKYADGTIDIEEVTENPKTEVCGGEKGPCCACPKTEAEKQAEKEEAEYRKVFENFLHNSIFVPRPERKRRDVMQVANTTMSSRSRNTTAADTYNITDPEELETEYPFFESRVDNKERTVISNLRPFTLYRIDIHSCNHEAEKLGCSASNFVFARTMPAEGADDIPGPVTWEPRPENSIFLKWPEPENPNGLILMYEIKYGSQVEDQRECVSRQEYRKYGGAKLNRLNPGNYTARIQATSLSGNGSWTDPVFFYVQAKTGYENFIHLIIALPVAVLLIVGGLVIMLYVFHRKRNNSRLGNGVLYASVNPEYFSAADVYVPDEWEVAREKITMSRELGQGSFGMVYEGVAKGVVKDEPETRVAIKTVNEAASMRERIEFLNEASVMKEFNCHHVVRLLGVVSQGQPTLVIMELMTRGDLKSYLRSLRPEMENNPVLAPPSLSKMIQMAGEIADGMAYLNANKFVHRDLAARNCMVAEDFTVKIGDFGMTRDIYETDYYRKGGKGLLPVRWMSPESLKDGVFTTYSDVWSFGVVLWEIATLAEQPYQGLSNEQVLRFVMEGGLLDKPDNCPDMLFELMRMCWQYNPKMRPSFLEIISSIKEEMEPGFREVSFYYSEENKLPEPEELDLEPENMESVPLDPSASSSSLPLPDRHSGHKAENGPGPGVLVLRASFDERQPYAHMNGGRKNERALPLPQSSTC

For the compound `C#Cc1cccc(Nc2ncnc3cc(OC)c(OCCCN4CCOCC4)cc23)c1` [NRC-2694, N-(3-ethylnylphenyl)-7-methoxy-6-[3-(4-morpholinyl)propoxy]-4-quinazolinamine], the “% Ctrl @ 10000 nM” value on SgK085 is 84 % Ctrl; at MELK it was 57 % Ctrl; at EGFR (G719C), 0 % Ctrl; at ABL1 (M351T), 37 % Ctrl; at RET (V804M) it was 100 % Ctrl; on IGF1R it was 74 % Ctrl. For the same compound, the “% Ctrl @ 10000 nM” value at ACVR2B came out at 63 % Ctrl; on AMPK-alpha1 it was 50 % Ctrl; on EGFR, 0 % Ctrl; on AURKA it was 100 % Ctrl; at GSK3A, 75 % Ctrl; at PLK4, 70 % Ctrl. The “% Ctrl @ 10000 nM” value on DDR2 came out at 76 % Ctrl; on FYN, 41 % Ctrl; on CSNK1G1, 55 % Ctrl; on FGR, 19 % Ctrl; at FLT3 (D835H) it was 8.1 % Ctrl; at PRKR, 51 % Ctrl. The “% Ctrl @ 10000 nM” value on PFTAIRE2 worked out at 71 % Ctrl; on CSNK1G2 it was 76 % Ctrl; at KIT (D816V) it was 17 % Ctrl; at NEK1, 66 % Ctrl; on MEK2 it was 44 % Ctrl.

The record behind these values is patent US9050341B2, “Methods of treating drug resistant and other tumors by administering 6,7-dialkoxy quinazoline derivatives” (NATCO PHARMA LIMITED, priority 2009, dated 2015).
